Values after ≈ are worked out from the molar mass of the structure shown.

The test system of this experiment is MDA-MB-231. In words: Cytotoxicity against human MDA-MB-231 cells by MTT assay. The class given is functional, cell-based. For orientation: Formazan colour is commonly taken as a measure of viable cells.

One may read the IC50 as the concentration at which inhibition is half-maximal. Lower therefore signals greater potency in that assay. As to `C[C@H]1CC[C@H]2[C@@H]3CC(=O)[C@H](Cn4c(O)nc5c(O)ncnc54)[C@@]13CC2(C)C`, half-maximal inhibition (IC50) required 8.87 µg/mL (≈ 23.9 µM).

For the origin of these results see ChEMBL document CHEMBL1149842, “Purine alkaloids from the South China Sea gorgonian Subergorgia suberosa” (J Nat Prod, 2008).
